In PubChem BioAssay AID1963868 (Molecular Pharmacology Branch, DTP, NCI, 2024):

Tested on: KRAS PDC tumor spheroids (HUVEC+MSC), viability
Experiment: Anticancer human tumor 254851-301-R-J1-PDC patient-derived colon carcinoma cell line growth inhibition [KRAS2]
Conditions: for IC50: curve of first compound; for viability, T/C: stronger effect = lower value
How it was run: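 Combination screen of spheroid viability in tumor-cell co-cultures with endothelial (HUVEC) and mesenchymal stem cell stroma. Each agent was tested in half-log dilutions, topping at clinical Cmax or at 10 microM without a known Cmax.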

[1] = second compound 0.1 µM, first compound 0.0001 µM
[2] = second compound 0.1 µM, first compound 0.000316 µM
[3] = second compound 0.1 µM, first compound 0.001 µM
[4] = second compound 0.1 µM, first compound 0.00316 µM
[5] = second compound 0.1 µM, first compound 0.01 µM
[6] = second compound 0.1 µM, first compound 0.0316 µM
[7] = second compound 0.316 µM, first compound 0.0001 µM
[8] = second compound 0.316 µM, first compound 0.000316 µM
[9] = second compound 0.316 µM, first compound 0.001 µM
[10] = second compound 0.316 µM, first compound 0.00316 µM
[11] = second compound 0.316 µM, first compound 0.01 µM
[12] = second compound 0.316 µM, first compound 0.0316 µM
[13] = second compound 1 µM, first compound 0.0001 µM
[14] = second compound 1 µM, first compound 0.000316 µM
[15] = second compound 1 µM, first compound 0.001 µM
[16] = second compound 1 µM, first compound 0.00316 µM
[17] = second compound 1 µM, first compound 0.01 µM
[18] = second compound 1 µM, first compound 0.0316 µM
[19] = second compound 3.16 µM, first compound 0.0001 µM
[20] = second compound 3.16 µM, first compound 0.000316 µM
[21] = second compound 3.16 µM, first compound 0.001 µM
[22] = second compound 3.16 µM, first compound 0.00316 µM
[23] = second compound 3.16 µM, first compound 0.01 µM
[24] = second compound 3.16 µM, first compound 0.0316 µM
[25] = second compound 10 µM, first compound 0.0001 µM
[26] = second compound 10 µM, first compound 0.000316 µM
[27] = second compound 10 µM, first compound 0.001 µM
[28] = second compound 10 µM, first compound 0.00316 µM
[29] = second compound 10 µM, first compound 0.01 µM
[30] = second compound 10 µM, first compound 0.0316 µM
[31] = second compound 0.1 µM, first compound 0.1 µM
[32] = second compound 0.1 µM, first compound 0.316 µM
[33] = second compound 0.1 µM, first compound 1 µM
[34] = second compound 0.316 µM, first compound 0.1 µM
[35] = second compound 0.316 µM, first compound 0.316 µM
[36] = second compound 0.316 µM, first compound 1 µM
[37] = second compound 1 µM, first compound 0.1 µM
[38] = second compound 1 µM, first compound 0.316 µM
[39] = second compound 1 µM, first compound 1 µM
[40] = second compound 3.16 µM, first compound 0.1 µM
[41] = second compound 3.16 µM, first compound 0.316 µM
[42] = second compound 3.16 µM, first compound 1 µM
[43] = second compound 10 µM, first compound 0.1 µM
[44] = second compound 10 µM, first compound 0.316 µM
[45] = second compound 10 µM, first compound 1 µM
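Also: spheroids exposed to compounds for seven days before readout.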
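For viability, T/C in this document: 100% = DMSO vehicle control luminescence of the spheroids.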

CC(=O)Nc1cccc(-n2c(=O)n(C3CC3)c(=O)c3c(Nc4ccc(I)cc4F)n(C)c(=O)c(C)c32)c1 + CNCc1ccccc1-c1csc(C(C)Nc2nc(C)nc3cc(OC)c(OC)cc23)c1
IC50 (second compound 0.1 µM): 4.7 nM | IC50 (second compound 0.316 µM): 5.18 nM | IC50 (second compound 1 µM): 2.4 nM | IC50 (second compound 3.16 µM): 0.639 nM | IC50 (second compound 10 µM): < 0.1 nM | viability, T/C [1]: 101% | viability, T/C [2]: 101% | viability, T/C [3]: 87.7% | viability, T/C [4]: 71% | viability, T/C [5]: 11.4% | viability, T/C [6]: 2.93% | viability, T/C [7]: 82.5% | viability, T/C [8]: 99.8% | viability, T/C [9]: 87.1% | viability, T/C [10]: 78.2% | viability, T/C [11]: 12.6% | viability, T/C [12]: 2.77% | viability, T/C [13]: 94.4% | viability, T/C [14]: 94.9% | viability, T/C [15]: 88.2% | viability, T/C [16]: 37.9% | viability, T/C [17]: 5.82% | viability, T/C [18]: 2.26% | viability, T/C [19]: 72.5% | viability, T/C [20]: 74.9% | viability, T/C [21]: 34.9% | viability, T/C [22]: 0.57% | viability, T/C [23]: 0.32% | viability, T/C [24]: 0.28% | viability, T/C [25]: 0.16% | viability, T/C [26]: 0.15% | viability, T/C [27]: 0.13% | viability, T/C [28]: 0.1% | viability, T/C [29]: 0.09% | viability, T/C [30]: 0.15%

CCN1CCN(Cc2ccc(Nc3ncc(F)c(-c4cc(F)c5nc(C)n(C(C)C)c5c4)n3)nc2)CC1 + C=CC(=O)N1CCN(c2nc(=O)n(-c3c(C)ccnc3C(C)C)c3nc(-c4c(O)cccc4F)c(F)cc23)C(C)C1
IC50 (second compound 0.1 µM): 960 nM | IC50 (second compound 0.316 µM): > 1000 nM | IC50 (second compound 1 µM): > 1000 nM | IC50 (second compound 3.16 µM): 707 nM | IC50 (second compound 10 µM): > 1000 nM | viability, T/C [4]: 114% | viability, T/C [5]: 101% | viability, T/C [6]: 96.9% | viability, T/C [31]: 83.2% | viability, T/C [32]: 73.2% | viability, T/C [33]: 47.1% | viability, T/C [10]: 113% | viability, T/C [11]: 107% | viability, T/C [12]: 90.4% | viability, T/C [34]: 82.6% | viability, T/C [35]: 73.2% | viability, T/C [36]: 50.9% | viability, T/C [16]: 104% | viability, T/C [17]: 101% | viability, T/C [18]: 92.8% | viability, T/C [37]: 78.2% | viability, T/C [38]: 75.7% | viability, T/C [39]: 48.4% | viability, T/C [22]: 89.5% | viability, T/C [23]: 87.4% | viability, T/C [24]: 97.1% | viability, T/C [40]: 59.7% | viability, T/C [41]: 71.4% | viability, T/C [42]: 42.6% | viability, T/C [28]: 96.4% | viability, T/C [29]: 105% | viability, T/C [30]: 102% | viability, T/C [43]: 83.2% | viability, T/C [44]: 73.8% | viability, T/C [45]: 56%

Cn1nccc1Nc1nccc(-c2cc3c(s2)C(C)(C)N(CCN2CCOCC2)C3=O)n1 + C=CC(=O)N1CCN(c2nc(=O)n(-c3c(C)ccnc3C(C)C)c3nc(-c4c(O)cccc4F)c(F)cc23)C(C)C1
IC50 (second compound 0.1 µM): 2760 nM | IC50 (second compound 0.316 µM): 3750 nM | IC50 (second compound 1 µM): 2570 nM | IC50 (second compound 3.16 µM): 1910 nM | IC50 (second compound 10 µM): 3100 nM | viability, T/C [6]: 87.5% | viability, T/C [31]: 94.5% | viability, T/C [32]: 94.5% | viability, T/C [33]: 96.8% | viability, T/C (second compound 0.1 µM, first compound 3.16 µM): 44.1% | viability, T/C (second compound 0.1 µM, first compound 10 µM): 4.13% | viability, T/C [12]: 102% | viability, T/C [34]: 92.2% | viability, T/C [35]: 102% | viability, T/C [36]: 88% | viability, T/C (second compound 0.316 µM, first compound 3.16 µM): 58.2% | viability, T/C (second compound 0.316 µM, first compound 10 µM): 4.04% | viability, T/C [18]: 95.5% | viability, T/C [37]: 91.2% | viability, T/C [38]: 91.9% | viability, T/C [39]: 79.5% | viability, T/C (second compound 1 µM, first compound 3.16 µM): 43.5% | viability, T/C (second compound 1 µM, first compound 10 µM): 5.08% | viability, T/C [24]: 73.7% | viability, T/C [40]: 82.7% | viability, T/C [41]: 78.6% | viability, T/C [42]: 77.6% | viability, T/C (second compound 3.16 µM, first compound 3.16 µM): 28.6% | viability, T/C (second compound 3.16 µM, first compound 10 µM): 3.74% | viability, T/C [30]: 97.1% | viability, T/C [43]: 97.1% | viability, T/C [44]: 79.7% | viability, T/C [45]: 74.9% | viability, T/C (second compound 10 µM, first compound 3.16 µM): 51.5% | viability, T/C (second compound 10 µM, first compound 10 µM): 4.35%

CC(=O)Nc1cccc(-n2c(=O)n(C3CC3)c(=O)c3c(Nc4ccc(I)cc4F)n(C)c(=O)c(C)c32)c1 + CC1OCC2(CCN(c3cnc(Sc4ccnc(N)c4Cl)c(N)n3)CC2)C1N
IC50 (second compound 0.1 µM): 4.15 nM | IC50 (second compound 0.316 µM): 3.45 nM | IC50 (second compound 1 µM): 2.18 nM | IC50 (second compound 3.16 µM): 0.975 nM | IC50 (second compound 10 µM): 0.395 nM | viability, T/C [1]: 92.1% | viability, T/C [2]: 100% | viability, T/C [3]: 85.7% | viability, T/C [4]: 63% | viability, T/C [5]: 10.8% | viability, T/C [6]: 2.77% | viability, T/C [7]: 98.7% | viability, T/C [8]: 82% | viability, T/C [9]: 87.3% | viability, T/C [10]: 53.8% | viability, T/C [11]: 5.84% | viability, T/C [12]: 2.66% | viability, T/C [13]: 80.7% | viability, T/C [14]: 79% | viability, T/C [15]: 75% | viability, T/C [16]: 38% | viability, T/C [17]: 3.61% | viability, T/C [18]: 1.88% | viability, T/C [19]: 66.2% | viability, T/C [20]: 74.4% | viability, T/C [21]: 49.4% | viability, T/C [22]: 4.29% | viability, T/C [23]: 2.24% | viability, T/C [24]: 1.57% | viability, T/C [25]: 69.1% | viability, T/C [26]: 59.7% | viability, T/C [27]: 9.76% | viability, T/C [28]: 2.21% | viability, T/C [29]: 1.43% | viability, T/C [30]: 1.76%
